Reference: article PMC4197335, “Cancer-Selective Targeting of the NF-κB Survival Pathway with GADD45β/MKK7 Inhibitors” (Cancer Cell, 2014)
≈ marks a conversion by molar mass, not a printed value.

Columns and labels:
[1] = target: T1, GADD45β/MKK7 complex (Homo sapiens, UniProt O14733); assay: ELISA GADD45β/MKK7 competition assay; format: binding
T1 construct: Full-length human (h)MKK7 was expressed as a protein fused to an N-terminal GST tag (GST-MKK7); made in house
T1 sequence (O14733 1-419): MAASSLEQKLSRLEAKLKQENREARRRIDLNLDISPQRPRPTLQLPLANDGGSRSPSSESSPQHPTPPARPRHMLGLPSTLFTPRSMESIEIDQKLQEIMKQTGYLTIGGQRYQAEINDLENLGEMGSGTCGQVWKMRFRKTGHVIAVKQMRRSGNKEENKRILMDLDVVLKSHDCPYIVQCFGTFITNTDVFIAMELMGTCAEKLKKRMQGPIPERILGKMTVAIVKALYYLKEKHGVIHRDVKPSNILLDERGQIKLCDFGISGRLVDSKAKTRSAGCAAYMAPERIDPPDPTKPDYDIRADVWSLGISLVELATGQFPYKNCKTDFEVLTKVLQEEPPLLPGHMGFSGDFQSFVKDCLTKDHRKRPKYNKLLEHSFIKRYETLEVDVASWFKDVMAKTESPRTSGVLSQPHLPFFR
From the text: Additional details are provided in Supplemental Experimental Procedures.
(1:1,000) and the HRP chromogenic substrate, o -phenylenediamine (OPD). GST -coated wells wer e […]
The ELISA competition screen used f or the isolation of antagonists of the GADD45β /MKK7 […]
The library deconvolution strategy used for this screen was described previously […]
General information about this type of screens can be found elsewhere […]
Values were expressed as the percentage of inhibition of His6-hGADD45β binding to GST-hMKK7 relative to the binding measured in the absence of […]
Dose-response, ELISA GADD45β /MKK7 competition assays were carried out under similar […]
As part of the SAR analysis and lead optimization process, where appropriate, competitors were tested at a concentration up to 100 nM. In order to determine their stability in biolog ical f luids , peptides were incubated at the concentration of 10 µM in […]
calculated using at least 7 concentrations of peptide and def ined as the mean concentration of peptide […]
the absence of competitor. W here indicated, values were expressed as the percentage of inhibition of His 6 -hGADD45β binding to GST-hMKK7 relative to the binding measured in the absence of competitor.
GST was used as a control in all the experiments. […]
tetrapeptide used as negative control in some of the ELISA and cellular assays was as f ollows: z -DNC, z-T yr -Asp-His-Gln-NH 2 . […]

[2] = pharmacokinetics after single intravenous injection
Experimental: The pharmacokinetic analyses of DTP3 and z-DTP2 were outsourced. Additional details are provided in Supplemental Experimental Procedures. […]
(§1) Pharmacokinetic Anal yses
In vitro and in vivo pharmacok inetic analyses were outsourced to Cypr ot ex (http://www.c yprotex.com/home/) (Figure 7A, Tables S6). In vitro pharmacok inetic assays were perf ormed according to established, in- house protocols and included: plasma stability (human), thermodynamic solubility (PBS pH 7.4, at 37 °C f or 14 days), microsomal stability (human), plasma protein binding (PPB; mouse and human), and distribution coeff icient (LogD). In vivo pharmacok inetic […]
analyses were also perf ormed at Cyprotex according to established, in- house protocols. Brief ly, the peptides were dissolved in PBS and administered by single intravenous injection t o CD1 male mice at the dose of 10 mg/kg (25 -30 g of total body weight; n=3 mice per time point per compound) . Blood samples were collected in heparinized tubes at up to 7 tim e points after this injection (i.e. 0.08, 0.25, 0.5, 1, 2, 4 and 8 hr), and the plasma concentrations of the test peptide were determined at each time point by LC-MS/ MS, using a f ive- point standard curve covering a peptide concentration range from 3 to 3,000 ng/mL. Standard curves were prepared using blank plasma matrices and treated in the same manner as the test samples. The main pharmacok inetic parameters determined in these analyses were: terminal half-lif e (t 1/2 ), plasma clearance (CL), volume of distribution (V d ), and area under the plasma concentration versus time curve (AUC) (Figure 7A, Table S6). Values were calculated from the data of the peptide plasma concentration versus time curves using a non-compartmental model analysis, as described elsewhere (Groulx, 2006; Landaw and Di Stef ano 3rd, 1982) . […]

[3] = subcutaneous U266 myeloma xenograft (plasmacytoma model); format: in vivo, mice; conditions: male, NOD/SCID (NOD.CB17-Prkdcscid/IcrCrl), mouse, plasma, sc; continual infusion 14.5 mg/kg/day; SEM, n=16; read-out: plasma concentration at the steady state
[4] = distribution coefficient (LogD); format: physicochemical
From the text: (§2) Pharmacophore Model Building
(§3) The pharmacophore predictive
(§4) Broad- Panel Kinase Profiling
(§5) according to in-house protocols therein.
as §1
(§6) In vitro pharmacok inetic assays were […]

[5] = thermodynamic solubility; format: physicochemical; conditions: in PBS, pH 7.4, for 14 days at 37 °C
From the text: as §2, §3, §4, §5, §1, §6

[6] = tolerability in mice
From the text: Table S6, related to Figure 7. Summary of the pharmacokinetic profiles of DTP3 and z-DTP2
PK Param enters Values Drug
Values denote means ± SD (n=3) or SEM (n=5), as indicated. MW , molecular

CC(=O)N[C@H](Cc1ccc(O)cc1)C(=O)N[C@H](CCCNC(=N)N)C(=O)N[C@H](Cc1ccccc1)C(N)=O [DTP3, Ac-YRF-NH2]
IC50 ([1]; Table S4, read-out: IC50s (ELISA)): 0.16 nM | inhibition at 0.042 µM ([1]; read-out: % inhibition of (ELISA)): 94% | predicted dose required to achieve the therapeutic plasma concentration of 1 μM at the steady state ([2]; k0 = k1 x Vd x Cp): 0.81 mg/kg/h | AUC ([2]; mouse, in vivo, iv, 10 mg/kg): 6430 ± 10 ng·h/mL | Vd ([2]; mouse, in vivo, iv, 10 mg/kg): 2.8 ± 1.26 L/kg | clearance ([2]; mouse, in vivo, iv, 10 mg/kg): 27.1 ± 4.09 mL/min/kg | half-life ([2]; mouse, in vivo, iv, 10 mg/kg): 75.6 min | level at time molar [3]: 700 ± 90 nM | logD [4]: 1.19 ± 0.29 | solubility thermodynamic [5]: 169 ± 7.53 mg/mL (≈ 322 mM) | Toxicity - continual s.c. dosing (14.5 mg/kg/day for 28 days) ([6]; mice, osmotic pumps): no apparent toxicity | Toxicity - single i.v. (10 mg/kg) ([6]; mouse, in vivo, iv, 10 mg/kg): no apparent toxicity | Toxicity - oral (100 mg/kg) ([6]; mouse, in vivo, po, 100 mg/kg): no apparent toxicity | Toxicity - single s.c. (10 mg/kg) ([6]; mouse, in vivo, sc, 10 mg/kg): no apparent toxicity
